Patent US20190174748A1, “COMPOSITION FOR DELIVERY OF ACTIVE AGENTS TO AN ANIMAL” (priority 2015, published 2019)

Experiments:
BALB/C mice [1] = assay: Oral administration of OVA composition to mice: OVA specific IgG, IgA (ELISA) and ASC; assay type: in vivo; conditions: mice inoculated at 0 and 3 weeks, sampled at week 4
Experimental: Ovalbumin is orally administered to mice to test the efficacy of the inventive compositions in inducing an immune response.
Ovalbumin composition: Ovalbumin (1 mg/g of ovalbumin, Sigma, St. Louis, Mo.,) is incorporated into the inventive composition as described in Example 5. Three groups of 4 mice each are inoculated as follows: 1) ovalbumin (OVA) in the composition, administered orally, 2) OVA solution, administered subcutaneously (SC), 3) antigen free composition administered orally. Mice are inoculated at 0 and 3 weeks. Each dose administers a total 100 mg of dry composition mixed with corn oil at a ratio of 1:2 w/w of dry composition/oil, coated onto feed pellets. At week 4 each mouse is euthanized and serum and spleen cells are harvested.
Immunological assays: Serum is assayed for IgG and IgA by ELISA. ELISA is performed using OVA absorbed to polystyrene plates. Samples are placed in wells in triplicate at a 1:25 dilution for serum. Goat anti-mouse antibody conjugated with horse radish peroxidase is used, followed by an orthophenylenediamine substrate (Sigma, St. Louis, Mo., U.S.A.). Optical density of each well is determined by placing the plate in a microtiter plate spectrophotometer and reading the plate at 490 nm. Spleen cells are tested for antibody secreting cells (ASC) specific for OVA, using techniques described previously.

rats = conditions: 250-500 g rats, baits at 4% Warfarin activity
Excerpt: Experimental Methods: 250-500 g rats are used. Rats are fed ad libitum. Each experimental group is housed in a separate cage.
The feed intake and kill effect on the rats are monitored.

BALB/C mice [2] = conditions: baits at 4% Warfarin activity
Excerpt: Experimental Methods: Ten-twelve week old female BALB/C mice are used. Mice are fed ad libitum. Each experimental group is housed in a separate cage.
The feed intake and kill effect on the mice are monitored.

Rodents = conditions: rodents ingesting baits; cited from earlier work
[3] = Degradation of unprotected OVA in simulated gastric fluid with 0.08% pepsin, pH 2; assay type: in vitro ADME; conditions: pH 2, 37° C.
Experimental: Western Blot: the compositions were lysed with RIPA buffer as described above, and a calculated amount equivalent to 12 μg of protein per sample was loaded on a 10% SDS-polyacrylamide gradient gel (SDS-PAGE, Bio-Rad, Hercules, Calif.). Proteins were transferred onto a PVDF membrane (Bio-Rad) and blocked for 1 h with 5% non-fat milk in PBS containing 0.5% Tween-20 (PBS-T). Blots were incubated with an appropriate primary antibody at 1:5000 dilutions for 1 h at room temperature. After washing with PBS-T (3×10 mL, 5 min. each), the membranes were incubated with an appropriate HRP-conjugated secondary antibody (EMD Millipore Corporation, Billerica, Mass., USA) at 1:5000 dilution for 1 h. After washing with PBS-T (3×10 mL, 5 min. each), chemiluminescent films were developed with an ECL substrate (Amsheram Biosciences).
To evaluate the loss of activity of a protein antigen following a typical gastric exposure, non-encapsulated OVA (10 mg) was incubated in 10 ml simulated gastric fluid containing 0.08% pepsin at pH-2 for 2 h at 37° C. on a shaker. Medium was withdrawn at 15 min, 30 min, 60 min and 120 min incubation times, and the amount of residual OVA was analyzed using Western Blot analysis as described above.

Molecule: ovalbumin [non-encapsulated OVA, ovalbumin, model vaccine / protein antigen, unprotected]
- OVA specific serum IgA, IgG and ASC secreting cells (BALB/C mice [1]): equally increased

Molecule: CC(=O)CC(c1ccccc1)c1c(O)c2ccccc2oc1=O (stereo not shown) [Warfarin]
- kill effect after 8 h from feeding (rats): all group 2 rats remain alive
- kill effect after 8 h from feeding (BALB/C mice [2]): all group 2 mice remain alive
- time to become unconscious (Rodents): 1 to 2 h
- time to obvious symptoms of poisoning (Rodents): 15 to 30 min
- time to recovery after sub lethal amount (Rodents): ≤ 8 h

B1: ovalbumin (protein, UniProt P01012 2-386, looked up)
Ovalbumin: GSIGAASMEFCFDVFKELKVHHANENIFYCPIAIMSALAMVYLGAKDSTRTQINKVVRFDKLPGFGDSIEAQCGTSVNVHSSLRDILNQITKPNDVYSFSLASRLYAEERYPILPEYLQCVKELYRGGLEPINFQTAADQARELINSWVESQTNGIIRNVLQPSSVDSQTAMVLVNAIVFKGLWEKAFKDEDTQAMPFRVTEQESKPVQMMYQIGLFRVASMASEKMKILELPFASGTMSMLVLLPDEVSGLEQLESIINFEKLTEWTSSNVMEERKIKVYLPRMKMEEKYNLTSVLMAMGITDVFSSSANLSGISSAESLKISQAVHAAHAEINEAGREVVGSAEAGVDAASVSEEFRADHPFLFCIKHIATNAVLFFGRCVSP
notes: ovalbumin, model vaccine / protein antigen, unprotected
- Remaining activity (%) ([3]; 15 min in simulated gastric fluid, relative to pre-exposure activity): 61%
- Remaining activity (%) ([3]; 30 min in simulated gastric fluid): 55%
- Remaining activity (%) ([3]; 60 min in simulated gastric fluid): 38%
- Remaining activity (%) ([3]; 120 min in simulated gastric fluid): 2%
